# Experimental data published in patent US20240360082A1, “SUBSTITUTED PYRIDONE COMPOUNDS USEFUL TO TREAT ORTH[…]” (priority 2021, published 2024).
# Biological target: influenza A virus minigenome (PB2, PB1, PA, NP proteins) (UniProt P04665)
# Assay type: cell-based
# Details: read-out: RNP_ Hubei B IC50
# influenza A virus minigenome (PB2, PB1, PA, NP proteins), sequence (P04665 whole entry): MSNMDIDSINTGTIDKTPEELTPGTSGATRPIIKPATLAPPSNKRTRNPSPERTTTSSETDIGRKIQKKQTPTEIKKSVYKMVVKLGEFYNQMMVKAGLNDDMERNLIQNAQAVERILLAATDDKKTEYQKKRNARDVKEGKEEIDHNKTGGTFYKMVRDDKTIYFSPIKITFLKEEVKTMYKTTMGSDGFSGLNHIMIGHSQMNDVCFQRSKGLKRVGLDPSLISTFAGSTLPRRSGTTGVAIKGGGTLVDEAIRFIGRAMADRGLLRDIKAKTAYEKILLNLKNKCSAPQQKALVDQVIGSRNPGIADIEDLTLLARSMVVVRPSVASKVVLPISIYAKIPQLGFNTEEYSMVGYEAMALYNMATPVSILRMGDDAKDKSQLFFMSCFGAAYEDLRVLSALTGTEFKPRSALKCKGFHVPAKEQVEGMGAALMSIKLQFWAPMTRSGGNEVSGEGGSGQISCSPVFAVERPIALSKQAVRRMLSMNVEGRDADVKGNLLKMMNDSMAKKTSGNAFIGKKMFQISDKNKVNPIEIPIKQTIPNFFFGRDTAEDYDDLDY
row,SMILES,IC50
1,"NC(=O)c1cc(-c2ccc(OCC3COCc4c(C5CC5)nnn43)cc2)c(C(F)(F)F)[nH]c1=O (stereo not drawn) [Example 381, 5-(4-((3-cyclopropyl-6,7-dihydro-4H-[1,2,3]triazolo[5,1-c][1,4]oxazin-7-yl)methoxy)phenyl)-2-oxo-6-(trifluoromethyl)-1,2-dihydropyridine-3-carboxamide]",5 to 10 µM
2,"COC(C)(C)C1COCC(COc2ccc(-c3cc(C(N)=O)c(=O)[nH]c3C(F)(F)F)cc2)O1 (stereo not drawn) [Example 382, 5-(4-((6-(2-methoxypropan-2-yl)-1,4-dioxan-2-yl)methoxy)phenyl)-2-oxo-6-(trifluoromethyl)-1,2-dihydropyridine-3-carboxamide]",5 to 10 µM
3,"NC(=O)c1cc(-c2ccc(OCc3ccnn3CC3CC3)cc2)c(C(F)(F)F)[nH]c1=O [Example 265, 5-(4-((1-(cyclopropylmethyl)-1H-pyrazol-5-yl)methoxy)phenyl)-2-oxo-6-(trifluoromethyl)-1,2-dihydropyridine-3-carboxamide]",25 to 50 µM
4,"CC(C)(C)OC(=O)N1CCC(COc2ccc(-c3cc(C(N)=O)c(=O)[nH]c3C(F)(F)F)cc2)C1 (stereo not drawn) [Example 302, Tert-butyl 3-((4-(5-carbamoyl-6-oxo-2-(trifluoromethyl)-1,6-dihydropyridin-3-yl)phenoxy)methyl)pyrrolidine-1-carboxylate]",25 to 50 µM
5,"NC(=O)c1cc(-c2ccc(OC[C@H]3COC[C@@H](C4CC4)O3)cc2)c(C(F)(F)F)[nH]c1=O [Example 325, 5-(4-(((2R,6R)-6-cyclopropyl-1,4-dioxan-2-yl)methoxy)phenyl)-2-oxo-6-(trifluoromethyl)-1,2-dihydropyridine-3-carboxamide]",10 to 25 µM
6,"Cc1cncc(COc2ccc(-c3cc(C(N)=O)c(=O)[nH]c3C(F)(F)F)cc2)n1 [Example 283, 5-(4-((6-methylpyrazin-2-yl)methoxy)phenyl)-2-oxo-6-(trifluoromethyl)-1,2-dihydropyridine-3-carboxamide]",5 to 10 µM
7,"NC(=O)c1cc(-c2ccc(OCC3COCC(Cn4cccc4)O3)cc2)c(C(F)(F)F)[nH]c1=O (single isomer, unassigned) [Example 374, 5-(4-((6-((1H-pyrrol-1-yl)methyl)-1,4-dioxan-2-yl)methoxy)phenyl)-2-oxo-6-(trifluoromethyl)-1,2-dihydropyridine-3-carboxamide]",5 to 10 µM
8,"NC(=O)c1cc(-c2ccc(OCC3CCOC3)cc2)c(C(F)(F)F)[nH]c1=O (stereo not drawn) [Example 231, 2-oxo-5-(4-((tetrahydrofuran-3-yl)methoxy)phenyl)-6-(trifluoromethyl)-1,2-dihydropyridine-3-carboxamide]",25 to 50 µM
9,"NC(=O)c1cc(-c2ccc(OCC3COCCO3)c(F)c2)c(C(F)(F)F)[nH]c1=O (stereo not drawn) [Example 239, 5-(4-((1,4-dioxan-2-yl)methoxy)-3-fluorophenyl)-2-oxo-6-(trifluoromethyl)-1,2-dihydropyridine-3-carboxamide]",10 to 25 µM
10,"CCOC[C@@]1(C)COC[C@@H](COc2ccc(-c3cc(C(N)=O)c(=O)[nH]c3C(F)(F)F)cc2)O1 [Example 428, 5-(4-(((2S,6S)-6-(ethoxymethyl)-6-methyl-1,4-dioxan-2-yl)methoxy)phenyl)-2-oxo-6-(trifluoromethyl)-1,2-dihydropyridine-3-carboxamide]",5 to 10 µM
11,"CC(C)(C)OC(=O)N1C[C@H](F)C[C@H]1COc1ccc(-c2cc(C(N)=O)c(=O)[nH]c2C(F)(F)F)cc1 [Example 305, Tert-butyl (2S,4R)-2-((4-(5-carbamoyl-6-oxo-2-(trifluoromethyl)-1,6-dihydropyridin-3-yl)phenoxy)methyl)-4-fluoropyrrolidine-1-carboxylate]",25 to 50 µM
12,"NC(=O)c1cc(-c2ccc(OCC3COCC(COC4CC(F)(F)C4)O3)cc2)c(C(F)(F)F)[nH]c1=O (single isomer, unassigned) [Example 366, 5-(4-((6-((3,3-difluorocyclobutoxy)methyl)-1,4-dioxan-2-yl)methoxy)phenyl)-2-oxo-6-(trifluoromethyl)-1,2-dihydropyridine-3-carboxamide]",5 to 10 µM
13,"NC(=O)c1cc(-c2ccc(OCC3COCCN3C3CC3)cc2)c(C(F)(F)F)[nH]c1=O (stereo not drawn) [Example 248, 5-(4-((4-cyclopropylmorpholin-3-yl)methoxy)phenyl)-2-oxo-6-(trifluoromethyl)-1,2-dihydropyridine-3-carboxamide]",5 to 10 µM
14,"NC(=O)c1cc(-c2ccc(OCc3ccon3)cc2)c(C(F)(F)F)[nH]c1=O [Example 223, 5-(4-(isoxazol-3-ylmethoxy)phenyl)-2-oxo-6-(trifluoromethyl)-1,2-dihydropyridine-3-carboxamide]",25 to 50 µM
15,"NC(=O)c1cc(-c2ccc(OCC3CCCCO3)cc2)c(C(F)(F)F)[nH]c1=O (stereo not drawn) [Example 236, 2-oxo-5-(4-((tetrahydro-2H-pyran-2-yl)methoxy)phenyl)-6-(trifluoromethyl)-1,2-dihydropyridine-3-carboxamide]",5 to 10 µM

# Same assay, conditions: read-out: RNP_Hubei B
row,SMILES,IC50
1,"COCOc1ccc(-c2cc(C(N)=O)c(=O)[nH]c2C(F)(F)F)cc1 [Example 13, 5-(4-(methoxymethoxy)phenyl)-2-oxo-6-(trifluoromethyl)-1,2-dihydropyridine-3-carboxamide]",25 to 50 µM
2,"NC(=O)c1cc(-c2ccc(OCC3OCC4CCC3O4)cc2)c(C(F)(F)F)[nH]c1=O (single isomer, unassigned) [Example 317, 5-(4-((3,8-dioxabicyclo[3.2.1]octan-2-yl)methoxy)phenyl)-2-oxo-6-(trifluoromethyl)-1,2-dihydropyridine-3-carboxamide]",5 to 10 µM
3,"CC(C)CS(=O)(=O)N1CCCOC(COc2ccc(-c3cc(C(N)=O)c(=O)[nH]c3C(F)(F)F)cc2)C1 (stereo not drawn) [Example 198, 5-(4-((4-(isobutylsulfonyl)-1,4-oxazepan-2-yl)methoxy)phenyl)-2-oxo-6-(trifluoromethyl)-1,2-dihydropyridine-3-carboxamide]",25 to 50 µM
4,"NC(=O)c1cc(-c2ccc(OCc3cncs3)cc2)c(C(F)(F)F)[nH]c1=O [Example 134, 2-oxo-5-(4-(thiazol-5-ylmethoxy)phenyl)-6-(trifluoromethyl)-1,2-dihydropyridine-3-carboxamide]",25 to 50 µM
5,"CS(=O)(=O)c1cccc(COc2ccc(-c3cc(C(N)=O)c(=O)[nH]c3C(F)(F)F)cc2)c1 [Example 75, 5-(4-((3-(methylsulfonyl)benzyl)oxy)phenyl)-2-oxo-6-(trifluoromethyl)-1,2-dihydropyridine-3-carboxamide]",25 to 50 µM
6,"CC(C)S(=O)(=O)N1CCOC(COc2ccc(-c3cc(C(N)=O)c(=O)[nH]c3C(F)(F)F)cc2)C1 (stereo not drawn) [Example 191, 5-(4-((4-(isopropylsulfonyl)morpholin-2-yl)methoxy)phenyl)-2-oxo-6-(trifluoromethyl)-1,2-dihydropyridine-3-carboxamide]",25 to 50 µM
7,"NC(=O)c1cc(-c2ccc(OCc3ccc4cc[nH]c4c3)cc2)c(C(F)(F)F)[nH]c1=O [Example 86, 5-(4-((1H-indol-6-yl)methoxy)phenyl)-2-oxo-6-(trifluoromethyl)-1,2-dihydropyridine-3-carboxamide]",5 to 10 µM
8,"NC(=O)c1cc(-c2ccc(CN3CCOCC3=O)cc2)c(C(F)(F)F)[nH]c1=O [Example 46, 2-oxo-5-(4-((3-oxomorpholino)methyl)phenyl)-6-(trifluoromethyl)-1,2-dihydropyridine-3-carboxamide]",25 to 50 µM
9,"COCc1ccc(-c2cc(C(N)=O)c(=O)[nH]c2C(F)(F)F)cc1 [Example 15, 5-(4-(methoxymethyl)phenyl)-2-oxo-6-(trifluoromethyl)-1,2-dihydropyridine-3-carboxamide]",25 to 50 µM
10,"N#CCc1ccc(-c2cc(C(N)=O)c(=O)[nH]c2C(F)(F)F)cc1 [Example 20, 5-(4-(cyanomethyl)phenyl)-2-oxo-6-(trifluoromethyl)-1,2-dihydropyridine-3-carboxamide]",25 to 50 µM
11,"NC(=O)c1cc(-c2ccc(CN3CCCC3)cc2)c(C(F)(F)F)[nH]c1=O [Example 5, 2-oxo-5-(4-(pyrrolidin-1-ylmethyl)phenyl)-6-(trifluoromethyl)-1,2-dihydropyridine-3-carboxamide]",25 to 50 µM
12,"NC(=O)c1cc(-c2ccc(OCC3CCOCC3)cc2)c(C(F)(F)F)[nH]c1=O [Example 56, 2-oxo-5-(4-((tetrahydro-2H-pyran-4-yl)methoxy)phenyl)-6-(trifluoromethyl)-1,2-dihydropyridine-3-carboxamide]",25 to 50 µM
13,"NC(=O)c1cc(-c2ccc(OCc3ccccc3[N+](=O)[O-])cc2)c(C(F)(F)F)[nH]c1=O [Example 76, 5-(4-((2-nitrobenzyl)oxy)phenyl)-2-oxo-6-(trifluoromethyl)-1,2-dihydropyridine-3-carboxamide]",10 to 25 µM
14,"CCCNc1cccc(COc2ccc(-c3cc(C(N)=O)c(=O)[nH]c3C(F)(F)F)cc2)c1 [Example 66, 2-oxo-5-(4-((3-(propylamino)benzyl)oxy)phenyl)-6-(trifluoromethyl)-1,2-dihydropyridine-3-carboxamide]",0.1 to 1 µM
15,"NC(=O)c1cc(-c2ccc(CN3CCS(=O)(=O)CC3)cc2)c(C(F)(F)F)[nH]c1=O [Example 47, 5-(4-((1,1-dioxidothiomorpholino)methyl)phenyl)-2-oxo-6-(trifluoromethyl)-1,2-dihydropyridine-3-carboxamide]",25 to 50 µM
16,"NC(=O)c1cc(-c2ccc(C(c3cnco3)N3CCOCC3)cc2)c(C(F)(F)F)[nH]c1=O (stereo not drawn) [Example 48, 5-(4-(morpholino(oxazol-5-yl)methyl)phenyl)-2-oxo-6-(trifluoromethyl)-1,2-dihydropyridine-3-carboxamide]",25 to 50 µM
17,"NC(=O)c1cc(-c2cccc(N)c2)c(C(F)(F)F)[nH]c1=O [Example 7, 5-(3-aminophenyl)-2-oxo-6-(trifluoromethyl)-1,2-dihydropyridine-3-carboxamide]",25 to 50 µM
18,"Cn1cc(COc2ccc(-c3cc(C(N)=O)c(=O)[nH]c3C(F)(F)F)cc2)c(C(F)(F)F)n1 [Example 109, 5-(4-((1-methyl-3-(trifluoromethyl)-1H-pyrazol-4-yl)methoxy)phenyl)-2-oxo-6-(trifluoromethyl)-1,2-dihydropyridine-3-carboxamide]",25 to 50 µM
